The results in this text go back to patent US7981903B2, “2-[2-{phenylamino}-1H-pyrrolo[2,3-D]pyrimidin-4-yl)amino] benzamide derivatives as IGF-1R inhibitors for the treatment of cancer” (GlaxoSmithKline LLC, priority 2007, dated 2011).

For assay [1], the target named is T1, NIH-3T3 cells overexpressing human IGF-1R (Homo sapiens, UniProt P08069).
T1 construct: expressed in transfected cells; host or cells: NIH-3T3 (mouse fibroblasts)
The experiment in a line: IGF-1R cellular autophosphorylation (DELFIA). Type of assay: cell-based. The method in brief: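 Receptor autophosphorylation measured by DELFIA, capturing IGF-1R or IRβ and detecting with europium anti-pTyr, reported as percent of IGF-1- or insulin-stimulated signal. Compounds (30 uM to 1.5 nM) added 2 h before ligand, then 15 min stimulation (IGF-1 30 ng/ml or insulin 3 ug/ml).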

In the next assay the test system is Colo205. In words: Inhibition of cell proliferation (CellTiter-Glo or InCell analyzer), Colo205. Conditions: Homo sapiens, COLO 205, 72 h / 3 days, values given as IC50 category. Format: cell-based. The method, then:
(§1) Cell proliferation was measured by either CellTiter-Glo (measures cellular ATP level as a surrogate for total cell number) or by InCell analyzer (counts number of nuclei as a measure of cell number).
(§2) For CellTiter-Glo assay, exponentially growing cell lines of different tumor origins, cultured in appropriate media containing 10% fetal bovine serum at 37° C. in a 5% CO2 incubator, were plated at low density (less than 2000cells/well) in 96-well plates. Twenty four hours post-plating, cells were treated with different concentrations of test compounds ranging from 30 uM to 1.5 nM. Several wells were left untreated as a control. Seventy two hours post-treatment, cell numbers were determined using 50-100 ul per well of CellTiter-Glo (Promega #G7573). Plates were incubated at 37° C. for 30 minutes and the chemiluminescent signal was read on the Victor V or Envison 2100 reader.
(§3) For InCell Analyser assay, various cell lines of different tumor origins were grown to 70-80% confluency in appropriate culture media containing 10% fetal bovine serum at 37° C. in a 5% CO2 incubator. On day −1, cells were seeded at 2 densities in 384-well plates and incubated at 37° C. overnight. Stock compound plates were prepared in advance which contained dimethyl sulfoxide (DMSO) alone and a 9-point half-log decreasing dose range of the compound in DMSO. The compound plates were stored at −80° C. and each plate was only thawed once and used. On day 0, the main assay plates received compound or DMSO via a sonic delivery system (ECHO). The highest final concentration of compound of the dose range in the culture plates was 10 uM. These plates were cultured at 37° C. for 3 days. […] On day 3, the compound treated plates were stained and fixed to measure proliferation, apoptosis, and mitotic index using an InCelL1000 analyser. A nuclear stain was used to identify cells in the wells. By counting the number of nuclei, the proliferation index of compound treated groups were calculated as a percentage relative to the DMSO control, which was set to 100%. The IC50 values were calculated using model 205 in ExcelFit.
(§4) IC50 (nM) values for compounds of select examples were categorized by relative inhibition of cell proliferation.

Assay [2] addresses T2, NIH-3T3 cells overexpressing human IR (Homo sapiens, UniProt P06213).
T2 construct: expressed in transfected cells; host or cells: NIH-3T3 (mouse fibroblasts)
The experiment in a line: IR cellular autophosphorylation (DELFIA). Format: cell-based. The settings on record: 2 h compound, insulin 3 ug/ml for 15 minutes, IC50 category. The protocol:
NIH-3T3 cells overexpressing human IGF-1R or IR were plated in 96-well plates (10,000 cells/well) in culture media containing 10% fetal bovine serum and incubated at 37° C. in a 5% CO2 incubator. Twenty four hours post-plating, cells were treated with different concentrations of test compounds ranging from 30 uM to 1.5 nM. Two hours after compound addition, cells were stimulated with either human IGF-1 (30 ng/ml) or insulin (3 ug/ml) for 15 minutes. Cell lysates are analyzed for phosphorylated receptors using dissociation enhanced lanthanide fluor-immuno assay (DELFIA) with anti-IGF-1R (MAB391, R&D Systems, Minneapolis, Minn.) or anti-IRβ (sc-711, Santa Cruz Biotechnology, Santa Cruz, Calif.) capture antibody and europium-labeled anti-pTyr antibody (Eu-N1 PT66, Perkin Elmer, Waltham, Mass.) for detection. The fluorescence signal for cells treated with compounds was expressed as percent relative to 100% stimulation (IGF-1 or insulin stimulated signal).

The next assay deals with ALK (Homo sapiens, UniProt Q9UM73). The experiment in a line: ALK enzyme assay (HTRF). Type of assay: biochemical. Conditions: 0.25 nM ALK, 15.0 μM ATP, values given as pIC50 category. The method in brief: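 Final compound range 0.00017 to 10 μM (twelve 1:3 dilutions). Kinase reaction with ATP and biotinylated synthetic peptide runs 120 min at 20° C, stopped with EDTA; phosphotyrosine detected by HTRF after 60 min. Inhibition referenced to DMSO (1%) and EDTA (0.1 M) controls, curve-fitted.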
Chain of ALK (Q9UM73 19-1620): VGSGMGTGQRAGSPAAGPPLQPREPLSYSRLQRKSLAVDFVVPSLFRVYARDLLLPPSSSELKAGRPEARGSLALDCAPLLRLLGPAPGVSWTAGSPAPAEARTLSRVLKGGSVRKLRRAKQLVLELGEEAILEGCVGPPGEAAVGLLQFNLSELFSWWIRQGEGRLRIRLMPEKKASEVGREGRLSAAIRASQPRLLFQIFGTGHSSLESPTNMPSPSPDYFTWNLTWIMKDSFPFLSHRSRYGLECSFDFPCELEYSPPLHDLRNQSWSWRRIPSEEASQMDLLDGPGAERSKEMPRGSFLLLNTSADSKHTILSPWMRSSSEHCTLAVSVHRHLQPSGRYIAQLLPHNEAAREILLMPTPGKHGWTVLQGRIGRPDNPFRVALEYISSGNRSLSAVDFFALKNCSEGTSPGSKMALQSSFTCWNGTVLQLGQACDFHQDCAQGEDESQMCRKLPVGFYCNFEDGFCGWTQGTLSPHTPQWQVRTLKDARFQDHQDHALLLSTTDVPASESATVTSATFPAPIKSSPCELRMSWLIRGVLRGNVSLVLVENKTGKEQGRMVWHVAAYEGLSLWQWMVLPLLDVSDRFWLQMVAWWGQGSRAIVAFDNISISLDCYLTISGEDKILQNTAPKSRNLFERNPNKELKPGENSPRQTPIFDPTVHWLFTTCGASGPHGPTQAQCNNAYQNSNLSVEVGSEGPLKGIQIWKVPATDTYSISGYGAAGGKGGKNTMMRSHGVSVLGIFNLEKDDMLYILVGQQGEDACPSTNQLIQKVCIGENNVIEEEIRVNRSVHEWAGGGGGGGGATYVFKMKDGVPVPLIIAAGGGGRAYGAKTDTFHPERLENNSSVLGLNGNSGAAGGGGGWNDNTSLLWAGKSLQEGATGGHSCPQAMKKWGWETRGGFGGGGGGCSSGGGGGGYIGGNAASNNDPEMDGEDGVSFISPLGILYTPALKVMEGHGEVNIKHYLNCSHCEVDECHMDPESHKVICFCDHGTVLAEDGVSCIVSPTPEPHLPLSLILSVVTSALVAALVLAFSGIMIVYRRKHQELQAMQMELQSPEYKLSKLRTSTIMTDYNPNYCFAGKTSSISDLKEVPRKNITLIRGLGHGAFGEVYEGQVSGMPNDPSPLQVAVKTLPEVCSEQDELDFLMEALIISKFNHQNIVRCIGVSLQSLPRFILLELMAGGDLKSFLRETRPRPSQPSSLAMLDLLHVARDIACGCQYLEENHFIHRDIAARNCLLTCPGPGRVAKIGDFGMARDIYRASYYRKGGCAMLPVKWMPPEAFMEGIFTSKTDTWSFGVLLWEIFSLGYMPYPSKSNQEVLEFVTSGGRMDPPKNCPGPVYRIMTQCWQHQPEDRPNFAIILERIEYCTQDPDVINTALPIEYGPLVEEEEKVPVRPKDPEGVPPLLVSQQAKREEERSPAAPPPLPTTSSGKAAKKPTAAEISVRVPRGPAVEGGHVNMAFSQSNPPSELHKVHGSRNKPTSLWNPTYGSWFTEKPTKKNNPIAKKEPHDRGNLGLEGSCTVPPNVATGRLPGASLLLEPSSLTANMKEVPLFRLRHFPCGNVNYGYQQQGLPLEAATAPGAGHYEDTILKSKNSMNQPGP

A further assay has as its target T3, human IGF1R (hIGF1R) (Homo sapiens, UniProt P08069).
T3 construct: containing amino acid residues 957-1367 of human IGF1R; made in house; host or cells: Sf9 cells (baculovirus)
The experiment in a line: TR-FRET kinase assay of purified hIGF1R. Type of assay: biochemical. The settings on record: activated hIGF1R 0.5 nM, 10 μM ATP, values given as pIC50 category, read-out: IGF-1R pIC50 (converted).

The target in another assay is T4, human IR (hIR) (Homo sapiens, UniProt P06213).
T4 construct: containing amino acid residues 979-1382 of human IR; made in house; host or cells: Sf9 cells (baculovirus), same process as hIGF1R
T4 sequence (P06213 979-1382): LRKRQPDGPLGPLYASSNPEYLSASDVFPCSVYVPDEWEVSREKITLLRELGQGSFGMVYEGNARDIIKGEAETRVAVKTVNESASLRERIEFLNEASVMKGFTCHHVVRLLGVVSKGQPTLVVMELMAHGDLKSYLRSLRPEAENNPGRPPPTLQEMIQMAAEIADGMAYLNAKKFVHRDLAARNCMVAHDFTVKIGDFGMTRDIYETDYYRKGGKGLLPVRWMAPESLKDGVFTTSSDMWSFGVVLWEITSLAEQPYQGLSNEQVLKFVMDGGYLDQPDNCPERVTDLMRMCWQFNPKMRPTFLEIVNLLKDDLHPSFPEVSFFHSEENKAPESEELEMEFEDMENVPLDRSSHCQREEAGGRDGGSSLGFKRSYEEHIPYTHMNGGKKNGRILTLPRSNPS
The experiment in a line: TR-FRET kinase assay of purified hIR. Format: biochemical. Conditions: activated hIR 0.5 nM, 10 μM ATP, values given as pIC50 category.

The subject of another assay is NCI-H929. In words: Inhibition of cell proliferation (CellTiter-Glo or InCell analyzer), NCI-H929. Type of assay: cell-based. Conditions: Homo sapiens, 72 h / 3 days, values given as IC50 category. The method, then: as §1, §2, §3, §4

A value given as a limit tells only on which side of the number the result lay.

T1 sequence (P08069 31-1367): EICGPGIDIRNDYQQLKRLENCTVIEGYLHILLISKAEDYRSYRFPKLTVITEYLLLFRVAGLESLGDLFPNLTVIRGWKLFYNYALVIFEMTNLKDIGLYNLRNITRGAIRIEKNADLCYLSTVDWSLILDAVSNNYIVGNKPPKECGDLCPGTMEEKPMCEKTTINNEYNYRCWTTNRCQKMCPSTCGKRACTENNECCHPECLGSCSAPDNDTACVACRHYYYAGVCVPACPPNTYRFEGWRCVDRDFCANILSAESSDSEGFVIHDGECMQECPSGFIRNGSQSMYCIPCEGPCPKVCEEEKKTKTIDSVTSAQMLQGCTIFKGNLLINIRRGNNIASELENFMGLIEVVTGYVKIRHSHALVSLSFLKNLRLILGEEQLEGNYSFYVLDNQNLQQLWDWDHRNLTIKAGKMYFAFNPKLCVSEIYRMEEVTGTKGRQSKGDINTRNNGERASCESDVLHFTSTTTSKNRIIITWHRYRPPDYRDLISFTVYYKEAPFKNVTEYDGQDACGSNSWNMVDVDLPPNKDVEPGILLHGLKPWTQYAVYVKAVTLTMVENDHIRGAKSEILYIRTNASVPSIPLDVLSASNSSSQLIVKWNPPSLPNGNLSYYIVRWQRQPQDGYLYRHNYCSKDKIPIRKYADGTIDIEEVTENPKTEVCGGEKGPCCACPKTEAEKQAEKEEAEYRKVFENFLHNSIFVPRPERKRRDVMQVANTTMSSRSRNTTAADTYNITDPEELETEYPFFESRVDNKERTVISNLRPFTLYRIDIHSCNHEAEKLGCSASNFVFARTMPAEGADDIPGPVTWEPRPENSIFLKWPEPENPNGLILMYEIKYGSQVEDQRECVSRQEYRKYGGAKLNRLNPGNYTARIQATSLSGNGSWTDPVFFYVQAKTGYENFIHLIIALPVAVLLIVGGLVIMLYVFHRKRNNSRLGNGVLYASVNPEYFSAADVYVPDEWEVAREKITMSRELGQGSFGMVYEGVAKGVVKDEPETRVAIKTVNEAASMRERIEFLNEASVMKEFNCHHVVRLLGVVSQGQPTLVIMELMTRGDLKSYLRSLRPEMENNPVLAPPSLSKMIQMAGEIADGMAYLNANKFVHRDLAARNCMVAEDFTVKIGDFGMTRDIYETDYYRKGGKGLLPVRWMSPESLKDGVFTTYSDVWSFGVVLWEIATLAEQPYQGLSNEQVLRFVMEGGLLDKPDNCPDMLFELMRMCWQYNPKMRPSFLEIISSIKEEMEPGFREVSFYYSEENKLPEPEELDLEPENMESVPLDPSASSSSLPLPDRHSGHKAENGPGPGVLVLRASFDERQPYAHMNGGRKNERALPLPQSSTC
T2 sequence (P06213 28-1382): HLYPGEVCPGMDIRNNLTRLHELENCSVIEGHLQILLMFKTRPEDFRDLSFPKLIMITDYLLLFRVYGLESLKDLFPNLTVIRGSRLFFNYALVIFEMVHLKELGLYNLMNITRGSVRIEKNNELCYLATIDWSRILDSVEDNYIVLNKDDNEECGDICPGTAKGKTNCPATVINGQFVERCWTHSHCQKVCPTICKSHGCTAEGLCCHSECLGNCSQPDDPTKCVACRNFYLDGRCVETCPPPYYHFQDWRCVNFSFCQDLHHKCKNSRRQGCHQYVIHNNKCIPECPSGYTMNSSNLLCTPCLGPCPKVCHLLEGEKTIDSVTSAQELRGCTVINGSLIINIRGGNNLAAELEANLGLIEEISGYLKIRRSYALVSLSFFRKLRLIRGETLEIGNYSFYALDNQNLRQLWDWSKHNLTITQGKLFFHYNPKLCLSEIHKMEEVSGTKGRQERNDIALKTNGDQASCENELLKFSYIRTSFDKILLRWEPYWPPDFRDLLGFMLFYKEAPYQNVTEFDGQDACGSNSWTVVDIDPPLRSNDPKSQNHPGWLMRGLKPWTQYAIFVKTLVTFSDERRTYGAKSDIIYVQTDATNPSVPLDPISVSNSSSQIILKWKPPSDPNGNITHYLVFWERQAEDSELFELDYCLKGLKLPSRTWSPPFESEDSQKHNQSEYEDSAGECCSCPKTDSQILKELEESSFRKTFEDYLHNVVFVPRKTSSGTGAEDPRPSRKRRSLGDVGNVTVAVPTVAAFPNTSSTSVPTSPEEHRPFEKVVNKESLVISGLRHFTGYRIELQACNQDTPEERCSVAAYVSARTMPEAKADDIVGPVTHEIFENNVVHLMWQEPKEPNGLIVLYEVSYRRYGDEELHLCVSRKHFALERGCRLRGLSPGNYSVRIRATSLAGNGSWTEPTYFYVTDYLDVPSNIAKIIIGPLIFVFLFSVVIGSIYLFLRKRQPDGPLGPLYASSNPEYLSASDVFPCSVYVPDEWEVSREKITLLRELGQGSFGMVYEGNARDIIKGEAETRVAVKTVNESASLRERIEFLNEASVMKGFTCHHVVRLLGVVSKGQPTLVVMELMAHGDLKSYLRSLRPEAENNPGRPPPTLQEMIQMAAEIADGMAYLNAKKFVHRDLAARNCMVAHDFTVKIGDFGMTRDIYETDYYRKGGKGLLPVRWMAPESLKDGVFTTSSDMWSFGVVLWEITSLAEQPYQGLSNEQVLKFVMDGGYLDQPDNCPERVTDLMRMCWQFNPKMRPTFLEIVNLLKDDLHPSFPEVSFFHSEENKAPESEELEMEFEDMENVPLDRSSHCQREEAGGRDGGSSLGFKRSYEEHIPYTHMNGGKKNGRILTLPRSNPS
T3 sequence (P08069 957-1367): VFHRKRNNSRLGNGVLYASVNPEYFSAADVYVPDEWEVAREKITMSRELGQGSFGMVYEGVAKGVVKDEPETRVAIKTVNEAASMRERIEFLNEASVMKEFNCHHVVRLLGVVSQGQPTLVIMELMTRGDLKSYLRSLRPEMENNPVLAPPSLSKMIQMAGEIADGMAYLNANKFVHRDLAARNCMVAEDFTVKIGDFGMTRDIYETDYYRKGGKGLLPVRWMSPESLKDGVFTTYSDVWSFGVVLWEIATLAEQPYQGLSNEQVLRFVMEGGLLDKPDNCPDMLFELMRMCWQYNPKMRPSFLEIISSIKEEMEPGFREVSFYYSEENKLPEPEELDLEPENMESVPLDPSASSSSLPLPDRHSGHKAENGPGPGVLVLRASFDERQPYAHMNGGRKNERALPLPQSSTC

Consider `CNC(=O)c1cc(F)ccc1Nc1nc(Nc2ccc(N3CCN(C(C)C)CC3)cc2OC)nc2[nH]ccc12` [Example 65, 5-fluoro-N-methyl-2-[(2-{[4-[4-(1-methylethyl)-1-piperazinyl]-2-(methyloxy)phenyl]amino}-1H-pyrrolo[2,3-d]pyrimidin-4-yl)amino]benzamide], for which the IC50 in assay [1] is 100 to 500 nM; in the assay with Colo205 it was 250 to 1000 nM; in assay [2], 100 to 500 nM; at ALK, 1.26 to 3.98 nM; on human IGF1R (hIGF1R), 1.26 to 3.98 nM.
Consider `COc1cc(N2CCN(C(C)C)CC2)ccc1Nc1nc(Nc2ccc(F)cc2C(=O)NCCO)c2cc[nH]c2n1` [Example 66, 5-fluoro-N-(2-hydroxyethyl)-2-[(2-{[4-[4-(1-methylethyl)-1-piperazinyl]-2-(methyloxy)phenyl]amino}-1H-pyrrolo[2,3-d]pyrimidin-4-yl)amino]benzamide], for which the IC50 in assay [1] was above 500 nM; in the assay on Colo205, below 250 nM; in assay [2], above 500 nM; on ALK it was 1.26 to 3.98 nM; on human IGF1R (hIGF1R), 5.01 to 200 nM.
`CCc1cc(N2CCN(C(C)C)CC2)ccc1Nc1nc(Nc2cc(F)ccc2C(N)=O)c2cc[nH]c2n1` [Example 69, 2-{[2-({2-ethyl-4-[4-(1-methylethyl)-1-piperazinyl]phenyl}amino)-1H-pyrrolo[2,3-d]pyrimidin-4-yl]amino}-4-fluorobenzamide]: the IC50 in assay [1] was 100 to 500 nM; in the assay on Colo205, 250 to 1000 nM; in assay [2], 100 to 500 nM; at human IGF1R (hIGF1R), 1.26 to 3.98 nM; against human IR (hIR), 1.26 to 3.98 nM.
In the case of `COc1cc(N2CCOC[C@@H]2C)ccc1Nc1nc(Nc2cc(F)cc(F)c2C(N)=O)c2cc[nH]c2n1` [Example 90, 2,4-difluoro-6-[(2-{[4-[(3S)-3-methyl-4-morpholinyl]-2-(methyloxy)phenyl]amino}-1H-pyrrolo[2,3-d]pyrimidin-4-yl)amino]benzamide], the IC50 is below 100 nM in assay [1]; 250 to 1000 nM with Colo205; below 100 nM in assay [2]; 1.26 to 3.98 nM on human IGF1R (hIGF1R); 1.26 to 3.98 nM at human IR (hIR).
For the molecule `CNC(=O)c1c(F)cccc1Nc1nc(Nc2cc3c(cc2OC)CCN3C(=O)CN(C)C)nc2[nH]ccc12` [Example 116, 2-[(2-{[1-(N,N-dimethylglycyl)-5-(methyloxy)-2,3-dihydro-1H-indol-6-yl]amino}-1H-pyrrolo[2,3-d]pyrimidin-4-yl)amino]-6-fluoro-N-methylbenzamide], the IC50 in the assay with Colo205 was 250 to 1000 nM; with NCI-H929, below 250 nM.
On to `COc1cc2c(cc1Nc1nc(Nc3cc(F)cc(F)c3C(N)=O)c3cc[nH]c3n1)N(C(=O)[C@@H]1CCCN1C)CC2` [Example 148, 2,4-difluoro-6-[(2-{[5-(methyloxy)-1-(1-methyl-L-prolyl)-2,3-dihydro-1H-indol-6-yl]amino}-1H-pyrrolo[2,3-d]pyrimidin-4-yl)amino]benzamide], for which the IC50 is 250 to 1000 nM in the assay with Colo205; 250 to 1000 nM with NCI-H929; 5.01 to 200 nM against ALK; 1.26 to 3.98 nM on human IGF1R (hIGF1R); 1.26 to 3.98 nM against human IR (hIR).
On to `COc1cc2c(cc1Nc1nc(Nc3ccc(F)c(F)c3C(N)=O)c3cc[nH]c3n1)N(C(=O)CN(C)C)CC2` [Example 159, 6-[(2-{[1-(N,N-dimethylglycyl)-5-(methyloxy)-2,3-dihydro-1H-indol-6-yl]amino}-1H-pyrrolo[2,3-d]pyrimidin-4-yl)amino]-2,3-difluorobenzamide], for which the IC50 was below 250 nM with Colo205; below 250 nM with NCI-H929; 1.26 to 3.98 nM on ALK; 1.26 to 3.98 nM on human IGF1R (hIGF1R); 1.26 to 3.98 nM against human IR (hIR).
Regarding `CNC(=O)c1c(Nc2nc(Nc3cc4c(cc3OC)CCN4C(=O)CN(C)C)nc3[nH]ccc23)ccc(F)c1F` [Example 160, 6-[(2-{[1-(N,N-dimethylglycyl)-5-(methyloxy)-2,3-dihydro-1H-indol-6-yl]amino}-1H-pyrrolo[2,3-d]pyrimidin-4-yl)amino]-2,3-difluoro-N-methylbenzamide], the IC50 was 250 to 1000 nM with Colo205; below 250 nM in the assay with NCI-H929; 1.26 to 3.98 nM against ALK; 1.26 to 3.98 nM on human IGF1R (hIGF1R); 1.26 to 3.98 nM against human IR (hIR).
With `COc1cc2c(cc1Nc1nc(Nc3cc(Cl)cc(F)c3C(N)=O)c3cc[nH]c3n1)N(C(=O)CN(C)C)CCC2` [Example 171, 4-chloro-2-[(2-{[1-(N,N-dimethylglycyl)-6-(methyloxy)-1,2,3,4-tetrahydro-7-quinolinyl]amino}-1H-pyrrolo[2,3-d]pyrimidin-4-yl)amino]-6-fluorobenzamide], the IC50 in the assay with Colo205 was below 250 nM; in the assay with NCI-H929 it was below 250 nM; on ALK, 0.251 to 1 nM.
With `CNC(=O)c1c(F)cc(Cl)cc1Nc1nc(Nc2cc3c(cc2OC)CCCN3C(=O)CN(C)C)nc2[nH]ccc12` [Example 172, 4-chloro-2-[(2-{[1-(N,N-dimethylglycyl)-6-(methyloxy)-1,2,3,4-tetrahydro-7-quinolinyl]amino}-1H-pyrrolo[2,3-d]pyrimidin-4-yl)amino]-6-fluoro-N-methylbenzamide], the IC50 was 250 to 1000 nM in the assay on Colo205, below 250 nM in the assay with NCI-H929 and 1.26 to 3.98 nM against ALK.
For the molecule `CNC(=O)c1c(F)cccc1Nc1nc(Nc2cc3c(cc2OC)C(C)(C)CCN3C(=O)CN(C)C)nc2[nH]ccc12` [Example 226, 2-[(2-{[1-(N,N-dimethylglycyl)-4,4-dimethyl-6-(methyloxy)-1,2,3,4-tetrahydro-7-quinolinyl]amino}-1H-pyrrolo[2,3-d]pyrimidin-4-yl)amino]-6-fluoro-N-methylbenzamide], the IC50 in the assay with Colo205 is 250 to 1000 nM; with NCI-H929, below 250 nM; at human IGF1R (hIGF1R) it was 0.251 to 1 nM; against human IR (hIR) it was 0.251 to 1 nM.
As for `CNC(=O)c1c(F)cccc1Nc1nc(Nc2cc3c(cc2C)CCCN3C(=O)CN(C)C)nc2[nH]ccc12` [Example 247, 2-[(2-{[1-(N,N-dimethylglycyl)-6-methyl-1,2,3,4-tetrahydro-7-quinolinyl]amino}-1H-pyrrolo[2,3-d]pyrimidin-4-yl)amino]-6-fluoro-N-methylbenzamide], the values for the IC50 in the assay with Colo205, in the assay on NCI-H929 and on human IGF1R (hIGF1R) were above 1000 nM, 250 to 1000 nM and 5.01 to 200 nM, respectively.
With `COc1cc(C)c(NC(=O)CN(C)C)cc1Nc1nc(Nc2cccc(F)c2C(N)=O)c2cc[nH]c2n1` [Example 257, 2-[(2-{[5-[(N,N-dimethylglycyl)amino]-4-methyl-2-(methyloxy)phenyl]amino}-1H-pyrrolo[2,3-d]pyrimidin-4-yl)amino]-6-fluorobenzamide], the IC50 in assay [1] is below 100 nM; in assay [2], below 100 nM; against ALK, 0.251 to 1 nM; at human IGF1R (hIGF1R), 0.251 to 1 nM; on human IR (hIR), 0.251 to 1 nM.
